Laboratory results as given in ChEMBL document CHEMBL4152339, “Design and synthesis of novel 1H-tetrazol-5-amine based potent antimicrobial agents: DNA topoisomerase IV and gyrase affinity evaluation supported by molecular docking studies” (Eur J Med Chem, 2018).
Converted amounts (≈) assume the structure as drawn.

Assays:
[1] = system: Staphylococcus aureus; assay: Antibacterial activity against Staphylococcus aureus NCTC 4163 after 18 hrs by CLSI disc diffusion method; assay type: functional; conditions: NCTC 4163, 18 h
[2] = system: Bacillus cereus; assay: Antibacterial activity against Bacillus cereus ATCC 11778 after 18 hrs by CLSI disc diffusion method; assay type: functional; conditions: ATCC 11778, 18 h
[3] = Selectivity index, ratio of IC50 for human HaCaT cells to MIC for Bacillus subtilis ATCC 6633; assay type: toxicity; conditions: read-out: Selectivity Index
[4] = system: Bacillus spizizenii; assay: Antibacterial activity against Bacillus subtilis ATCC 6633 after 18 hrs by CLSI disc diffusion method; assay type: functional; conditions: ATCC 6633, 18 h
[5] = system: Bordetella bronchiseptica; assay: Antibacterial activity against Bordetella bronchiseptica ATCC 4617 after 18 hrs by CLSI disc diffusion method; assay type: functional; conditions: ATCC 4617, 18 h
[6] = system: Staphylococcus epidermidis; assay: Antibacterial activity against Staphylococcus epidermidis 510 after 18 hrs by CLSI disc diffusion method; assay type: functional; conditions: Staphylococcus epidermidis, 510, 18 h
[7] = system: Staphylococcus epidermidis; assay: Antibacterial activity against Staphylococcus epidermidis 431 after 18 hrs by CLSI disc diffusion method; assay type: functional; conditions: Staphylococcus epidermidis, 431, 18 h
[8] = system: Pseudomonas aeruginosa; assay: Antibacterial activity against Pseudomonas aeruginosa 16m after 18 hrs by CLSI disc diffusion method; assay type: functional
[9] = Selectivity index, ratio of IC50 for human HaCaT cells to MIC for Bordetella bronchiseptica ATCC 4617; assay type: toxicity; conditions: read-out: Selectivity Index
[10] = system: HaCaT; assay: Cytotoxicity activity against human HaCaT cells assessed as reduction in cell viability after 72 hrs by MTT assay; assay type: cell-based
[11] = system: Staphylococcus aureus; assay: Antibacterial activity against Staphylococcus aureus 495 after 18 hrs by CLSI disc diffusion method; assay type: functional; conditions: Staphylococcus aureus, 495, 18 h
[12] = system: Enterococcus faecalis; assay: Antibacterial activity against Enterococcus faecalis ATCC 29212 after 18 hrs by CLSI disc diffusion method; assay type: functional; conditions: ATCC 29212, 18 h
[13] = system: Staphylococcus epidermidis; assay: Antibacterial activity against Staphylococcus epidermidis ATCC 35984 after 18 hrs by CLSI […] method; assay type: functional; conditions: ATCC 35984, 18 h
[14] = system: Enterococcus hirae; assay: Antibacterial activity against Enterococcus hirae ATCC 10541 after 18 hrs by CLSI disc diffusion method; assay type: functional; conditions: ATCC 10541, 18 h
[15] = Selectivity index, ratio of IC50 for human HaCaT cells to MIC for Proteus vulgaris NCTC 4635; assay type: toxicity; conditions: read-out: Selectivity Index
[16] = system: Staphylococcus aureus; assay: Antibacterial activity against Staphylococcus aureus 572 after 18 hrs by CLSI disc diffusion method; assay type: functional; conditions: Staphylococcus aureus, 572, 18 h
[17] = system: Staphylococcus aureus; assay: Antibacterial activity against Staphylococcus aureus 497 after 18 hrs by CLSI disc diffusion method; assay type: functional; conditions: Staphylococcus aureus, 497, 18 h
[18] = system: Escherichia coli; assay: Antibacterial activity against Escherichia coli ML 16 after 18 hrs by CLSI disc diffusion method; assay type: functional; conditions: ML 16, 18 h
[19] = system: Escherichia coli; assay: Antibacterial activity against Escherichia coli ML 17 after 18 hrs by CLSI disc diffusion method; assay type: functional; conditions: ML 17, 18 h
[20] = system: Escherichia coli; assay: Antibacterial activity against Escherichia coli ML 15 after 18 hrs by CLSI disc diffusion method; assay type: functional; conditions: ML 15, 18 h
[21] = system: Escherichia coli; assay: Antibacterial activity against Escherichia coli ML 6 after 18 hrs by CLSI disc diffusion method; assay type: functional; conditions: ML 6, 18 h
[22] = system: Proteus vulgaris; assay: Antibacterial activity against Proteus vulgaris NCTC 4635 after 18 hrs by CLSI disc diffusion method; assay type: functional; conditions: NCTC 4635, 18 h
[23] = Inhibition of Staphylococcus aureus DNA topoisomerase 4 using Kinetoplast DNA as substrate after 30 mins by ethidium bromide staining based agarose gel electrophoresis method
[24] = system: Staphylococcus epidermidis; assay: Antibacterial activity against Staphylococcus epidermidis 469 after 18 hrs by CLSI disc diffusion method; assay type: functional; conditions: Staphylococcus epidermidis, 469, 18 h
[25] = system: Staphylococcus epidermidis; assay: Antibacterial activity against Staphylococcus epidermidis 471 after 18 hrs by CLSI disc diffusion method; assay type: functional; conditions: Staphylococcus epidermidis, 471, 18 h
[26] = system: Pseudomonas aeruginosa; assay: Antibacterial activity against Pseudomonas aeruginosa 7m after 18 hrs by CLSI disc diffusion method; assay type: functional
[27] = system: Staphylococcus aureus; assay: Antibacterial activity against Staphylococcus aureus ATCC 25923 after 18 hrs by CLSI disc diffusion method; assay type: functional; conditions: ATCC 25923, 18 h
[28] = system: Staphylococcus aureus; assay: Antibacterial activity against Staphylococcus aureus 496 after 18 hrs by CLSI disc diffusion method; assay type: functional; conditions: Staphylococcus aureus, 496, 18 h
[29] = system: Staphylococcus aureus; assay: Antibacterial activity against Staphylococcus aureus 586 after 18 hrs by CLSI disc diffusion method; assay type: functional; conditions: Staphylococcus aureus, 586, 18 h
[30] = Selectivity index, ratio of IC50 for human HaCaT cells to MIC for Enterococcus hirae ATCC 10541; assay type: toxicity; conditions: read-out: Selectivity Index
[31] = system: Staphylococcus aureus; assay: Antibacterial activity against Staphylococcus aureus 498 after 18 hrs by CLSI disc diffusion method; assay type: functional; conditions: Staphylococcus aureus, 498, 18 h
[32] = system: Staphylococcus epidermidis; assay: Antibacterial activity against Staphylococcus epidermidis 433 after 18 hrs by CLSI disc diffusion method; assay type: functional; conditions: Staphylococcus epidermidis, 433, 18 h
[33] = system: Micrococcus luteus; assay: Antibacterial activity against Micrococcus luteus ATCC 9341 after 18 hrs by CLSI disc diffusion method; assay type: functional; conditions: ATCC 9341, 18 h
[34] = Selectivity index, ratio of IC50 for human HaCaT cells to MIC for Micrococcus luteus ATCC 10240; assay type: toxicity; conditions: read-out: Selectivity Index
[35] = system: Pseudomonas aeruginosa; assay: Antibacterial activity against Pseudomonas aeruginosa 12m after 18 hrs by CLSI disc diffusion method; assay type: functional
[36] = system: Escherichia coli; assay: Antibacterial activity against Escherichia coli ML 9 after 18 hrs by CLSI disc diffusion method; assay type: functional; conditions: ML 9, 18 h
[37] = system: Staphylococcus epidermidis; assay: Antibacterial activity against Staphylococcus epidermidis ATCC 12228 after 18 hrs by CLSI disc diffusion method; assay type: functional; conditions: ATCC 12228, 18 h
[38] = system: Pseudomonas aeruginosa; assay: Antibacterial activity against Pseudomonas aeruginosa 31m after 18 hrs by CLSI disc diffusion method; assay type: functional
[39] = system: Pseudomonas aeruginosa; assay: Antibacterial activity against Pseudomonas aeruginosa 18m after 18 hrs by CLSI disc diffusion method; assay type: functional
[40] = system: Staphylococcus aureus; assay: Antibacterial activity against Staphylococcus aureus ATCC 6538 after 18 hrs by CLSI disc diffusion method; assay type: functional; conditions: ATCC 6538, 18 h
[41] = system: Pseudomonas aeruginosa; assay: Antibacterial activity against Pseudomonas aeruginosa ATCC 15442 after 18 hrs by CLSI disc diffusion method; assay type: functional; conditions: ATCC 15442, 18 h
[42] = system: Pseudomonas aeruginosa; assay: Antibacterial activity against Pseudomonas aeruginosa 11m after 18 hrs by CLSI disc diffusion method; assay type: functional
[43] = system: A549; assay: Cytotoxicity activity against human A549 cells assessed as reduction in cell viability after 72 hrs by MTT assay; assay type: cell-based; conditions: A549, 72 h
[44] = system: Staphylococcus epidermidis; assay: Antibacterial activity against Staphylococcus epidermidis 511 after 18 hrs by CLSI disc diffusion method; assay type: functional; conditions: Staphylococcus epidermidis, 511, 18 h
[45] = system: Escherichia coli; assay: Antibacterial activity against Escherichia coli ML 8 after 18 hrs by CLSI disc diffusion method; assay type: functional; conditions: ML 8, 18 h
[46] = Selectivity index, ratio of IC50 for human HaCaT cells to MIC for Staphylococcus aureus NCTC 4163; assay type: toxicity; conditions: read-out: Selectivity Index
[47] = system: Escherichia coli; assay: Antibacterial activity against Escherichia coli ML 12 after 18 hrs by CLSI disc diffusion method; assay type: functional; conditions: ML 12, 18 h
[48] = system: Staphylococcus epidermidis; assay: Antibacterial activity against Staphylococcus epidermidis 432 after 18 hrs by CLSI disc diffusion method; assay type: functional; conditions: Staphylococcus epidermidis, 432, 18 h
[49] = system: Escherichia coli; assay: Antibacterial activity against Escherichia coli ML 5 after 18 hrs by CLSI disc diffusion method; assay type: functional; conditions: ML 5, 18 h
[50] = system: Escherichia coli; assay: Antibacterial activity against Escherichia coli ATCC 10538 after 18 hrs by CLSI disc diffusion method; assay type: functional; conditions: ATCC 10538, 18 h
[51] = Selectivity index, ratio of IC50 for human HaCaT cells to MIC for Escherichia coli ATCC 10538; assay type: toxicity; conditions: read-out: Selectivity Index
[52] = system: Micrococcus luteus; assay: Antibacterial activity against Micrococcus luteus ATCC 10240 after 18 hrs by CLSI disc diffusion method; assay type: functional; conditions: ATCC 10240, 18 h
[53] = system: Staphylococcus aureus; assay: Antibacterial activity against Staphylococcus aureus 585 after 18 hrs by CLSI disc diffusion method; assay type: functional; conditions: Staphylococcus aureus, 585, 18 h
[54] = system: Pseudomonas aeruginosa; assay: Antibacterial activity against Pseudomonas aeruginosa 6m after 18 hrs by CLSI disc diffusion method; assay type: functional
[55] = system: Pseudomonas aeruginosa; assay: Antibacterial activity against Pseudomonas aeruginosa 10m after 18 hrs by CLSI disc diffusion method; assay type: functional
[56] = system: Staphylococcus aureus; assay: Antibacterial activity against Staphylococcus aureus 537 after 18 hrs by CLSI disc diffusion method; assay type: functional; conditions: Staphylococcus aureus, 537, 18 h
[57] = system: Staphylococcus epidermidis; assay: Antibacterial activity against Staphylococcus epidermidis 423 after 18 hrs by CLSI disc diffusion method; assay type: functional; conditions: Staphylococcus epidermidis, 423, 18 h
[58] = system: Pseudomonas aeruginosa; assay: Antibacterial activity against Pseudomonas aeruginosa ATCC 27853 after 18 hrs by CLSI disc diffusion method; assay type: functional; conditions: ATCC 27853, 18 h

SMILES: Cc1ccc(-n2nnnc2NCc2ccco2)cc1Cl
- MIC [1]: 14 µM (≈ 4.06 µg/mL)
- MIC [2]: 7 µM (≈ 2.03 µg/mL)
- selectivity ratio [3]: 11.4
- MIC [4]: 7 µM (≈ 2.03 µg/mL)
- MIC [5]: 14 µM (≈ 4.06 µg/mL)
- MIC [6]: 14 µM (≈ 4.06 µg/mL)
- MIC [7]: 7 µM (≈ 2.03 µg/mL)
- MIC [8]: 28 µM (≈ 8.11 µg/mL)
- selectivity ratio [9]: 11.4
- IC50 [10]: 80 µM
- MIC [11]: 7 µM (≈ 2.03 µg/mL)
- MIC [12]: 56 µM (≈ 16.2 µg/mL)
- MIC [13]: 7 µM (≈ 2.03 µg/mL)
- MIC [14]: 28 µM (≈ 8.11 µg/mL)
- selectivity ratio [15]: 11.4
- MIC [16]: 14 µM (≈ 4.06 µg/mL)
- MIC [17]: 7 µM (≈ 2.03 µg/mL)
- MIC [18]: 14 µM (≈ 4.06 µg/mL)
- MIC [19]: 14 µM (≈ 4.06 µg/mL)
- MIC [20]: 111 µM (≈ 32.2 µg/mL)
- MIC [21]: 111 µM (≈ 32.2 µg/mL)
- MIC [22]: 14 µM (≈ 4.06 µg/mL)
- IC50 [23]: 11.9 µg/mL (≈ 41.1 µM)
- MIC [24]: 7 µM (≈ 2.03 µg/mL)
- MIC [25]: 14 µM (≈ 4.06 µg/mL)
- MIC [26]: 14 µM (≈ 4.06 µg/mL)
- MIC [27]: 14 µM (≈ 4.06 µg/mL)
- MIC [28]: 14 µM (≈ 4.06 µg/mL)
- MIC [29]: 14 µM (≈ 4.06 µg/mL)
- selectivity ratio [30]: 2.85
- MIC [31]: 7 µM (≈ 2.03 µg/mL)
- MIC [32]: 14 µM (≈ 4.06 µg/mL)
- MIC [33]: 14 µM (≈ 4.06 µg/mL)
- selectivity ratio [34]: 11.4
- MIC [35]: 14 µM (≈ 4.06 µg/mL)
- MIC [36]: 28 µM (≈ 8.11 µg/mL)
- MIC [37]: 7 µM (≈ 2.03 µg/mL)
- MIC [38]: 14 µM (≈ 4.06 µg/mL)
- MIC [39]: 28 µM (≈ 8.11 µg/mL)
- MIC [40]: 7 µM (≈ 2.03 µg/mL)
- MIC [41]: 111 µM (≈ 32.2 µg/mL)
- MIC [42]: 28 µM (≈ 8.11 µg/mL)
- IC50 [43]: 78 µM
- MIC [44]: 14 µM (≈ 4.06 µg/mL)
- MIC [45]: 14 µM (≈ 4.06 µg/mL)
- selectivity ratio [46]: 5.71
- MIC [47]: 111 µM (≈ 32.2 µg/mL)
- MIC [48]: 14 µM (≈ 4.06 µg/mL)
- MIC [49]: 14 µM (≈ 4.06 µg/mL)
- MIC [50]: 14 µM (≈ 4.06 µg/mL)
- selectivity ratio [51]: 11.4
- MIC [52]: 7 µM (≈ 2.03 µg/mL)
- MIC [53]: 7 µM (≈ 2.03 µg/mL)
- MIC [54]: 14 µM (≈ 4.06 µg/mL)
- MIC [55]: 14 µM (≈ 4.06 µg/mL)
- MIC [56]: 14 µM (≈ 4.06 µg/mL)
- MIC [57]: 7 µM (≈ 2.03 µg/mL)
- MIC [58]: 14 µM (≈ 4.06 µg/mL)
